{
  "source": "paper PMC7336998",
  "about": "“Discovery of secondary sulphonamides as IDO1 inhibitors with potent antitumour effects in vivo” (Journal of Enzyme Inhibition and Medicinal Chemistry, 2020)",
  "key": {"[1]": {"tested_on": "naïve CD4+ T cells co-cultured with B16F1 cells", "assay": "FoxP3+ Treg cell differentiation in B16F1-T cell co-culture (flow cytometry)", "assay_type": "cell-based, mouse", "settings": "18 μM", "experimental": "The main bioassays performed in the study, including HeLa cell-based IDO1/kynurenine assay, Western blot analysis, T cell proliferation and Treg cell differentiation experiments, were carried out as described previously.\nBesides causing local tryptophan depletion, high IDO1 expression can also accumulate metabolites of kynurenine pathway. The elevated metabolites can not only induce effector T cell death directly through their cytotoxicity, but also promote the differentiation of naïve CD4^+ T cells into CD4^+ FoxP3^+ Treg cells by activating the AHR pathway. As a highly immunosuppressive subset of CD4^+ T cells, FoxP3^+ Treg cells are critical to the maintenance of immune homeostasis and are involved in tumour immune escape, thereby contributing to tumour development and progression. Therefore, we also utilised co-culture of B16F1 cells with naïve CD4^+ T cells to test whether the synthesised compounds could suppress IDO1 mediated Treg cell differentiation.\nFigure 5. Compounds 5d and 8 g inhibited Treg cell differentiation in the cell co-culture system. (A) After co-cultured with B16F1 cells, T cells were collected. Surface staining was performed with CD4^+ FTTC and CD25^+ PE for 30 min at 4 °C. The cells were fixed and permeabilized with fixation buffer and permeabilization wash buffer. The intracellular staining was performed with FoxP3^+ APC for 20 min. The cells were then analysed by flow cytometry analysis. (B) Statistical analysis of result A. Data are represented as ± SEM (n = 3). *p < 0.05, **p < 0.01 vs T + B16F1. TEXT PRINTED IN THE PICTURE: (A) Navoximod: 8.1% (T + B16F1; 1.5 μM) | (A) 8g: 7.8% (T + B16F1; 18 μM) | (A) 5d: 2.1% (T + B16F1; 18 μM)"}, "HeLa cells": {"tested_on": "HeLa cells", "assay": "HeLa cell viability by MTT at the end of the IDO1/kynurenine assay", "assay_type": "cell-based, human", "settings": "under the experimental conditions of the IDO1 assay", "excerpt": "It is well known that IDO1 is broadly expressed in human cancers and is induced by pro-inflammatory cytokines, such as interferon gamma (IFN-γ) and tumour necrosis factor alpha (TNF-α)[41]. Here we utilised a human cervical cancer cell line HeLa that endogenously expresses IDO1 upon IFN-γ treatment to evaluate the IDO1 inhibitory activity of the synthesised compounds by measuring kynurenine secreted into the media. This cell-based assay, as a rapid and simple method for determination IDO1/kynurenine, is closely related to the potency of the enzyme assay and has been widely used to identify various IDO1 inhibitors[19]^,[23]^,[29]^,[42]. In addition, cytotoxic compounds can reduce cell viability, which will decrease the IDO1 levels and then lower the conversion of tryptophan to kynurenine. Thus, we also employed this cellular assay to detect false positive IDO1 inhibitors and cytotoxic compounds by measuring HeLa cell viability. Clinical candidate navoximod was used as an assay control.\nFurthermore, the viability of HeLa cells was evaluated by the MTT method at the end of the assay."}, "CT26 colon carcinoma": {"tested_on": "CT26 colon carcinoma", "assay": "CT26 colon carcinoma xenograft in immunocompetent BALB/c mice (tumour growth, H&E, IHC, TUNEL, spleen FACS)", "assay_type": "in vivo", "experimental": "BALB/c mice (6–8 weeks old, 18–22 g) were supplied by Model Animal Research Centre of Nanjing University (Nanjing, China). Mice were maintained under standard specific-pathogen-free (SPF) conditions (21 ± 2 °C and 12-h light: dark cycle). Animal welfare and experimental procedures were carried out strictly in accordance with the Guide for the Care and Use of Laboratory Animals (The Ministry of Science and Technology of China, 2006) and the related ethical regulations of our university. All efforts were made to minimise animals’ suffering and to reduce the number of animals used. Mouse colon cancer cells (CT26) and melanoma cells (B16F1) were cultured and collected by centrifugation (1000 rpm, 5 min) and washed twice with ice-cold PBS. Then cells were diluted to 1 × 10^7/ml and 1 × 10^6 CT26/B16F1 cells (in 0.1 ml PBS) were injected subcutaneously into the right flanks of mice. All mice formed tumours three days after injection. Then mice were randomly distributed into five groups (n = 10/8) according to tumour volumes. 5d ([…], 12.5 mg/kg) were administered (i.g) to each group respectively every day. 5-FU (25 mg/kg) and Cis-platinum (1 mg/kg) were administered (i.p) every three days. Tumour length and tumour width were measured with a Vernier calliper every three days. Tumour volumes were measured and calculated using the equation volume = a × b^2/2, where “a” is the maximal […] and “b” is maximal orthogonal width. After the administration were completed, mice were weighed, euthanized, and tumours were removed and the weight were taken.\nFor immunohistochemistry staining, the sections were deparaffinized, rehydrated, and washed in 1% PBS-Tween 20, and then treated with 2% hydrogen peroxide, blocked with 3% goat serum (Life Technology, 16210–064) and incubated for 2 h at room temperature with specific primary antibodies. Then the slides were incubated with streptavidin-HRP (Shanghai Gene Company, GK500705) for 40 min, then stained with DAB (Shanghai Gene Company, GK500705) substrate and counter-stained with haematoxylin. Images were acquired by microscopy (Olympus IX51).\nGiven that it was the most prominent inhibitor in vitro, we chose compound 5d for further pharmacodynamic evaluation in vivo. Bowel cancer is the third leading cause of cancer in the world, thus we first evaluated the efficacy of compound 5d on the growth of murine CT26 colon carcinoma xenograft model in immunocompetent BALB/c mice. Fluorouracil (5-FU) is one of the most commonly used drugs to different cancers including bowel cancer, and was used as the positive control. The CT26 tumour-bearing mice were treated with 5d (3.125, 6.25, 12.5 mg/kg, i.g, every day) or 5-FU (25 mg/kg, i.p, […]). Tumour volumes were measured every two days for 14 days.\nFigure 7. Compound 5d suppressed colon cancer growth in immunocompetent mice. 1 × 10^6 CT26 cells were transplanted subcutaneously into the armpit of the BALB/c mice. Three days after transplantation, mice were randomly allocated to vehicle control or treatment groups (n = 10). Drugs were administered on days 1–14. Tumour volume (A) and mice body weight (B) were recorded. After sacrifice, solid tumours were separated and weighed (C, D). Data represent mean ± SEM, n = 10, *p < 0.05, **p < 0.01 vs vehicle.\nIn order to further observe morphological changes in tumour tissues after administration of compound 5d, the tumour tissue sections obtained from the BALB/c mice bearing CT26 colorectal tumours were stained with haematoxylin-eosin (H&E) to highlight different tissue structures, such as the nucleus and cytoplasm.\nThen, to understand the mechanism of tumour cell death, we detected the level of proliferating cell nuclear antigen (PCNA) protein and tumour cell apoptosis by immunohistochemistry (IHC) and terminal deoxynucleotidyl transferase dUTP nick end labelling (TUNEL) experiments, respectively. […]"}, "[2]": {"settings": "BALB/c mice, 12.5 mg/kg i.g, every day, 14 days"}, "[3]": {"settings": "CT26 tumour tissue, BALB/c mice, 3.125-12.5 mg/kg i.g"}},
  "note": "“Also recorded” adds a separate entry of the source.",
  "data": [
    {"smiles": "C=CC(=O)Nc1ccc(S(=O)(=O)NCc2cccc(Cl)c2)cc1", "note": "[5d, N-(4-(N-(3-Chlorobenzyl)sulfamoyl)phenyl)acrylamide]", "values": [
      {"measurement": "FoxP3+ Treg cells (flow cytometry)", "setting": "[1]", "result": 2.1, "unit": "%"},
      {"measurement": "FoxP3+ Treg cell differentiation (in words)", "setting": "[1]; Con A, 48 h", "result": "significantly reduce FoxP3^+ Treg cell differentiation; also recorded: returned to the initial level"},
      {"measurement": "HeLa cell viability", "setting": "HeLa cells", "result": "without affecting the cell viability"},
      {"measurement": "body weight of the mice", "setting": "CT26 colon carcinoma; 14-day treatment, vs vehicle group", "result": "no significant change in body weight"},
      {"measurement": "reduction of average tumour weight", "setting": "CT26 colon carcinoma; [2]", "result": 37.5, "unit": "%"},
      {"measurement": "reduction of tumour volume", "setting": "CT26 colon carcinoma; [2]", "result": 35.9, "unit": "%"},
      {"measurement": "tumour growth", "setting": "CT26 colon carcinoma; BALB/c mice, 3.125, 6.25, 12.5 mg/kg, i.g, every day, 14 days, vs vehicle", "result": "significantly suppressed the growth of tumour in a dose-dependent manner"},
      {"measurement": "number of tumour cells (H&E staining)", "setting": "CT26 colon carcinoma; [3]", "result": "decreased the number of tumour cells"},
      {"measurement": "tumour cell apoptosis (TUNEL)", "setting": "CT26 colon carcinoma; [3]", "result": "significantly induced the tumour cell apoptosis in a dose-dependent manner"},
      {"measurement": "expression of IFN-γ (IHC)", "setting": "CT26 colon carcinoma; CT26 tumour tissue, BALB/c mice, 3.125-12.5 mg/kg i.g, vs vehicle", "result": "increased the expression of IFN-γ in a dose-dependent manner"},
      {"measurement": "granzyme B levels (IHC)", "setting": "CT26 colon carcinoma; CT26 tumour tissue, BALB/c mice, all doses", "result": "elevated granzyme B levels"},
      {"measurement": "FoxP3+ Treg cells in spleen (FACS)", "setting": "CT26 colon carcinoma; CT26 tumour-bearing mice, 3.125 mg/kg", "result": 4.79, "unit": "%"},
      {"measurement": "FoxP3+ Treg cells in spleen (FACS)", "setting": "CT26 colon carcinoma; CT26 tumour-bearing mice, 6.25 mg/kg", "result": 4.13, "unit": "%"},
      {"measurement": "FoxP3+ Treg cells in spleen (FACS)", "setting": "CT26 colon carcinoma; CT26 tumour-bearing mice, 12.5 mg/kg", "result": 2.62, "unit": "%"},
      {"measurement": "number of FoxP3+ Treg cells in spleen (in words)", "setting": "CT26 colon carcinoma; CT26 tumour-bearing mice, 3.125-12.5 mg/kg", "result": "decreased the number of FoxP3^+ Treg cells in a dose-dependent manner"},
      {"measurement": "reduction of FoxP3+ Treg cells compared with the vehicle group", "setting": "CT26 colon carcinoma; spleen, high dose group", "result": 2.4, "unit": "fold"}
    ]}
  ]
}
